Test results from patent US20210130445A1 (priority 2019, published 2021).

B1: erenumab (antibody, chains of the INN, looked up, V domains shown)
VH: QVQLVESGGGVVQPGRSLRLSCAASGFTFSSFGMHWVRQAPGKGLEWVAVISFDGSIKYSVDSVKGRFTISRDNSKNTLFLQMNSLRAEDTAVYYCARDRLNYYDSSGYYHYKYYGMAVWGQGTTVTVSS
VL: QSVLTQPPSVSAAPGQKVTISCSGSSSNIGNNYVSWYQQLPGTAPKLLIYDNNKRPSGIPDRFSGSKSGTSTTLGITGLQTGDEADYYCGTWDSRLSAVVFGGGTKLTVL

Columns and labels:
[1] = set-up: species or system human; conditions: in vivo, sc
[2] = set-up: species or system human; unit not given here; conditions: in vivo

| Molecule | patient-reported pain [1] | duration of significant pain alleviation [2] |
| --- | --- | --- |
| C[C@@H]1[C@H](c2c(F)ccc(F)c2F)C[C@H](NC(=O)c2cnc3c(c2)C[C@@]2(C3)C(=O)Nc3ncccc32)C(=O)N1CC(F)(F)F [atogepant] | pain free |  |
| onabotulinumtoxinA | pain free | one to about six |
| B1 |  | one to about six |
